Experimental data reported in patent publication US20230287068A1, “KERATIN BD-6, PREPARATION METHOD THEREFOR AND PHARMACEUTICAL COMPOSITION AND USE THEREOF” (INSTITUTE OF MATERIAL MEDICA, CHINESE ACADEMY OF MEDICAL …, priority 2019, published 2023).
Where a name gives a salt, the structure may show the parent alone. Marks after values point to notes of the source that are not given here.

How the values were obtained:
[1] = test system: mice cough induced by ammonia water; assay: Antitussive test, cough induced by ammonia water in mice; assay type: in vivo, ICR mice
Experimental: • Animals: male ICR mice; • Drugs and reagents: dextromethorphan hydrobromide, ammonia water, 0.2% CMC-Na, protein BD-6; • Apparatus: Compressed nebulizer (403T type), balance (XS105DU type). • Experiment grouping: • Solvent control group; • Dextromethorphan 15 mg/kg group; • Protein BD-6, 20 mg/kg group, 50 mg/kg group.
Dextromethorphan and different doses of protein BD-6 (administration volume 10 ml/kg) were given orally in groups, and the solvent control group was given the same volume of distilled water. One hour later, mice were put into a sealed box and atomized 10% ammonia water for 10 seconds, and then observed and recorded the incubation period of cough in mice and the number of coughs in 2 minutes.
Record the time point of oral administration, the time point of atomization experiment, the incubation period of mice cough and the number of coughs within 2 minutes, respectively. The incubation period of cough refers to the number of seconds from the start of the atomization of ammonia to the occurrence of cough. The performance of coughing in mice is based on contraction of their abdominal muscles (breast contraction) and opening their mouths at the same time. Calculate the mean and standard error of each group of data, and use TTEST to compare the model group with other groups, and P<0.05 is considered as a significant difference.

[2] = test system: PLO-induced epilepsy in mice; assay: Pilocarpine (PLO) induced convulsive epilepsy in mice; assay type: in vivo, ICR mice; parameters: mortality rate: unit not given here; conditions: Diazepam 2 mg/kg, PLO 225 mg/kg i.p.
Experimental: • Animals: male ICR mice; • Drugs: Pilocarpine HCl (PLO, pilocarpine, pilocarpine hydrochloride), Diazepam (diazepam tablets), protein BD-6. • Experiment grouping: • Model group: • Diazepam 2 mg/kg group; • Protein BD-6, 50 mg/kg group, 200 mg/kg group.
The drug was administered once in the afternoon the day before modeling, PLO-225 mg/kg (modeling agent) was injected intraperitoneally 1 hour after the test drug was administered intragastrically on the day of modeling. And positive drug can be administered once 20 minutes before modeling. Observe for 30 minutes after PLO injection.
Observation indicators: ①Seizure situation: the time of seizures from Grade II to Grade IV; ②the time to death.
(§1) Seizure grade: Refer to Racine grading standard: Grade 0: No response; Grade I: manifested as twitching of facial muscles or the corners of the mouth; Grade II: can nod; Grade III: twitching of one limb; Grade IV: rigidity or body twitching; Grade V: generalized epilepsy (generalized tonic seizures).
Count the number of Grade IV seizures and deaths in each group of mice in the experiment; Grade II, III and IV incubation period. […] Chi-square test was used for statistics of the number of cases. The mean value and standard error of the incubation period were calculated, and TTEST was used to compare the model group with other groups. P<0.05 was considered as a significant difference.

[3] = test system: PTZ-induced epilepsy in mice; assay: Pentylenetetrazole (PTZ) induced epilepsy in mice; assay type: in vivo, ICR mice; conditions: Retigabine 60 mg/kg, PTZ 65 mg/kg i.p.
Experimental: • Animals: male ICR mice; • Medicines: Pentylenetetrazol (PTZ), Retigabine, Protein BD-6. • Experiment grouping: • Model group; • Retigabine 60 mg/kg group; • Protein BD-6, 50 mg/kg group, 200 mg/kg group;
The drug was administered once in the afternoon the day before modeling, On the day of modeling, PTZ-65 mg/kg (modeling agent) was injected intraperitoneal 1 hour after the test drug was administered intragastrically, and the positive drug can be administered once half an hour before modeling. Continue to observe for 15 minutes after injection of PTZ.
Observation index: ①Seizure situation: the time of seizures from Grade III to Grade VI; ②Death situation
as §1
Count the cases of seizures and deaths in each group of mice in the experiment; Grade III and IV incubation period. The incubation period of mice that have not attacked to Grade IV is recorded as the maximum of 900 seconds. Chi-square test was used for statistics of the number of cases. Calculate the mean and standard error of the incubation period. Use TTEST to compare the model group with other groups, and P<0.05 is considered as a significant difference.

[4] = test system: lipopolysaccharide (LPS) induced fever model in rats; assay: Lipopolysaccharide (LPS) induced fever model in SD rats; assay type: in vivo
Experimental: • Animals: 230-260 grams of male SD rats; • Drugs: lipopolysaccharide (LPS, SIGMAL-2880), aspirin (SIGMAA2093), protein BD-6; • Instruments: electronic balance (SARTORIUS BP121S type), electronic clinical thermometer (CITIZEN CT-513W type). • Experiment grouping: • Normal control group; • Model group: lipopolysaccharide fever model; • Positive control group: Aspirin 300 mg/kg group; • Protein BD-6, 10 mg/kg group, 50 mg/kg group.
Method: the method of intraperitoneal injection of Lipopolysaccharide to replicate rat fever model.
(§2) Preparation of experimental animals: After the experimental animals adapt to the experimental environment (temperature 22° C.±2° C., relative humidity 50%±2%) for 1 day. Pre-adaptation to measure rectal temperature at 8:00 and 15:00, rats were fasted and water was taken freely 12 h before experiment, and let the animal to empty its feces before measuring the rectal temperature. Apply petroleum jelly to the electronic thermometer probe before each temperature measurement. Insert the rat rectum 2 cm (can be marked at 2 cm to ensure that the depth of each insertion is consistent), and record the body temperature after the reading is stable.
Intraperitoneal injection of lipopolysaccharide to replicate rat fever model: The body temperature of the rats was measured before modeling. Qualified rats with a body temperature of 36.2-37.3° C. were selected and randomly divided into groups with 8 rats in each group. After oral administration of aspirin and different doses of protein BD-6, lipopolysaccharide (20 µg/kg, 2 ml/kg) was injected intraperitoneally immediately, and the normal control group was injected intraperitoneally with an equal volume of normal saline. The body temperatures of the rats were monitored after 2 hours for a total of 8 hours.
(§3) According to the body temperature measured at each time point on the day of the experiment, calculate the mean, standard deviation and standard error of the body temperature of each group of rats. The data of each group was compared with TTEST, and P<0.05 was considered as a significant difference.

[5] = test system: yeast-induced fever model in rats; assay: Yeast-induced fever model in SD rats; assay type: in vivo
Experimental: • Medicines: yeast (OXOID LP0021), aspirin (SIGMA A2093), protein BD-6; • Instruments: electronic balance (SARTORIUS BP121S type), electronic clinical thermometer (CITIZEN CT-513W type). • Experiment grouping: • Normal control group; • Model group: yeast fever model; • Positive control group: Aspirin 300 mg/kg group; • Protein BD-6, 10 mg/kg group, 50 mg/kg group.
as §2
Subcutaneous injection of dry yeast to replicate rat fever model: The body temperature of the rats was measured before modeling. Qualified rats with a body temperature of 36.2-37.3° C. were selected and randomly divided into groups with 8 rats in each group. After oral administration of aspirin and different doses of protein BD-6, 20% yeast suspension (10 ml/kg) was injected subcutaneously immediately, and the normal control group was injected intraperitoneally with an equal volume of normal saline. The body temperatures of the rats were monitored after 2 hours for a total of 8 hours.
as §3

[6] = test system: acetic acid writhing of ICR mice; assay: Acetic acid writhing test in ICR mice; assay type: in vivo
Experimental: • Animals: male ICR mice; • Drugs and reagents: aspirin, physiological saline, glacial acetic acid, protein BD-6. • Experiment grouping: • Model group; • Aspirin 300 mg/kg group; • Protein BD-6, 50 mg/kg group, 200 mg/kg group.
One day after the experimental animals adapt to the environment, Aspirin 300 mg/kg, protein BD-6 50 mg/kg, 200 mg/kg were given orally one hour in advance, and the administration volume was 10 ml/kg; Then, 0.6% acetic acid solution was injected intraperitoneally, and the incubation period (seconds) and frequency of writhing in the animal was observed within 15 minutes.
Calculate the mean and standard error of the data in each group. Compared with the model group by TTEST, P<0.05 was considered as statistically different.

[7] = aspirin 300 mg/kg oral, LPS 20 µg/kg i.p., SD rats
[8] = aspirin 300 mg/kg oral, 20% yeast s.c., SD rats
[9] = aspirin 300 mg/kg oral, 0.6% acetic acid i.p., within 15 minutes

With COc1ccc2c(c1)[C@]13CCCC[C@@H]1[C@H](C2)N(C)CC3 [Dextromethorphan, dextromethorphan hydrobromide, reference compound] the “Incubation period (cough)” value ([1]; Dextromethorphan 15 mg/kg oral, 10% ammonia water 10 seconds, X±SEM) was 37.3 ± 2.4 s, the Number of coughs ([1]; Dextromethorphan 15 mg/kg oral, within 2 minutes, X±SEM) was 30.2±2.0^∗∗ and the “Incubation period and number of coughs vs solvent control (in words)” value ([1]; dextromethorphan 15 mg/kg, P<0.05) was “significant improvement in the incubation period and the number of coughs”.

For CN1C(=O)CN=C(c2ccccc2)c2cc(Cl)ccc21 [Diazepam, reference compound], the Cases of deaths ([2]; 10 mice) was 0, the “Grade IV seizure rate” value ([2]; 10 mice) was 0** % and the mortality rate ([2]; 10 mice) was 0. The “Cases of Grade IV” value ([2]; 10 mice, 30 min observation) was 0**, the “Grade II seizure incubation period” value ([2]; mean±SEM) was 151±6^∗∗ s and the “Grade III seizure incubation period” value ([2]; mean±SEM) was 275±20^∗∗ s. The “Grade IV seizure incubation period” value ([2]; mean±SEM, maximum 1800 seconds) was 1800±0^∗∗ s.

With CCOC(=O)Nc1ccc(NCc2ccc(F)cc2)cc1N [Retigabine, reference compound] the Cases of deaths ([3]; 10 mice) was 0, the “Grade IV seizure rate” value ([3]; 10 mice) was 40%* and the mortality rate ([3]; 10 mice) was 0%. The “Cases of Grade IV” value ([3]; 10 mice, 15 min observation) was 4*, the “Grade III seizure incubation period” value ([3]; mean±SEM) was 104±13^∗∗ s and the “Grade IV seizure incubation period” value ([3]; mean±SEM, maximum 900 seconds) was 634±109^∗∗ s.

In the case of CC(=O)Oc1ccccc1C(=O)O [aspirin, reference compound], the “Body temperature 2 hours after modeling” value [4, 7] is reported as 36.7±0.1 °C, the “Body temperature 4 hours after modeling” value [4, 7] is reported as 36.7±0.1 °C and the “Body temperature 6 hours after modeling” value [4, 7] is reported as 36.6±0.1 °C. The “Body temperature 8 hours after modeling” value [4, 7] was 36.6±0.1 °C, the “Effect on increase in body temperature (in words)” value ([4]; aspirin 300 mg/kg, 2, 4, 6 and 8 hours after modeling, P<0.05 vs model group) was “can effectively inhibit the increase in body temperature of model rats” and the “Body temperature 2 hours after modeling” value [5, 8] was 37.1±0.1 °C. The “Body temperature 4 hours after modeling” value [5, 8] was 37.0±0.1 °C, the “Body temperature 6 hours after modeling” value [5, 8] was 37.1±0.1 °C and the “Body temperature 8 hours after modeling” value [5, 8] was 37.1±0.1 °C. The “Effect on increase in body temperature (in words)” value ([5]; aspirin 300 mg/kg, 4, 6 and 8 hours after modeling, P<0.05 vs model group) was “can effectively inhibit the increase in body temperature of model rats”, the “Writhing incubation period and times of writhing vs model group (in words)” value ([6]; Aspirin 300 mg/kg, P<0.05) was “can significantly delay the incubation period of writhing and reduce the times of writhing” and the Frequency of writhing [6, 9] was 14.8±3.3^∗∗ times. For the same compound, the Writhing incubation period [6, 9] was 281.6±26.0^∗∗ seconds.
